Test results reported in PMC10489817, “2-Alkyl-Substituted-4-Amino-Thieno[2,3-d]Pyrimidines: Anti-Proliferative Properties to In Vitro Breast Cancer Models” (Molecules, 2023).
Several values for one entry are separate records, joined by “and”; a condition that tells them apart may be missing. Equal values may be shown once. Read-outs that look alike come from different tables or passages of the source. One block for each molecule: values may come before it.

Experiments:
[1] = in vitro 3T3 NRU test, cytotoxicity; type: cell-based, mouse; conditions: mouse, BALB/3T3 clone A31 cells (mouse embryo fibroblasts)
Method: Compounds 2–5 were studied for cytotoxicity/phototoxicity by an in vitro 3T3 NRU-test. The cell line BALB 3T3, clone A31 (mouse embryo fibroblasts), was incubated with the test compounds at a concentration from 15 to 4000 µg/mL for 24 h at 37 °C, 5% CO2, and 95% humidity. The cytotoxicity and phototoxicity were expressed in percentages relative to the negative control determined. […] Based on the dose–response curves, the CC50/PC50 values (50% cytotoxic/phototoxic concentration) were calculated by nonlinear regression analysis (Table 1). The CC50 values can be used to calculate the PIF (photo-irritancy factor) for each test compound according to the following formula: PIF = CC50/PC50.
BALB/3T3 cells were cultured in 75 cm^2 tissue culture flasks in DMEM, 10% FBS, 2 mM glutamine, and antibiotics (penicillin 100 U/mL and streptomycin-100 µg/mL) at 37 °C, 5% CO2, and 90% relative humidity. Cytotoxicity/phototoxicity was assessed by a validated BALB/3T3 clone A31 neutral red uptake assay (3T3 NRU test). Briefly, cells were plated in a 96-well microtiter plate at a density of 1 × 10^4 cells/100 µL/well and incubated for 24 h. A wide concentration range was applied for the test compounds. For the phototoxicity tests, 96-well plates were irradiated with a dose of 2.4 J/cm^2, and the cells were incubated for an additional 24 h. After treatment with neutral red medium, washing, and treatment with the ethanol/acetic acid solution, the absorption was measured on a TECAN microplate reader (TECAN, Grödig, Austria) at a wavelength of 540 nm. The light source which we used was a light-emitting diode (LED) matrix—an artificial solar light simulator Helios-iO, model LE-9ND55-H—5500K (SERIC Ltd., Tokyo, Japan).
Cytotoxicity/phototoxicity were expressed as CC50/PC50 values (concentrations required for 50% cytotoxicity/phototoxicity), calculated using non-linear regression analysis (GraphPad Software GraphPad Prism 9.5.1, San Diego, CA, USA). The CC50 values were used to calculate the PIF (photo-irritancy factor) for each test substance, according to the following formula: […]

[2] = tested on: MDA-MB-231; assay: Cell cycle analysis by propidium iodide staining, MDA-MB-231; type: cell-based, human; conditions: for cell cycle arrest phase, MDA-MB-231: ER negative cell line; for change of %G1 vs control, MDA-MB-231 / change of %G2 vs control, MDA-MB-231 / change of %S vs control, MDA-MB-231: control = 100%, 24 h; for %G1, MDA-MB-231 / %G2, MDA-MB-231 / %S, MDA-MB-231: treated at IC50, 24 h
Method: Our study continued with the examination of the effect of the newly synthesized compounds’ IC50 values on cell cycle progression. The cell aliquots were collected, and FACS analyses were used to detect the effects of cell treatments with the selected compounds (2, 4, and 5). A propidium iodide staining assay was performed.
The changes in the cell cycle distribution in % (G1, S, and G2 phases), based on the graphical figures A–C, were calculated and are given in Table 4.
The cells were trypsinized, suspended in medium + 10% FCS, and centrifuged (1000 rpm, 5 min); then, the pellet was suspended in PBS (1 mL) and fixed with EtOH. The cells were suspended in 2.5 mL pre-cold 70% EtOH and incubated on ice for 15 min. The staining procedure was as follows: the pellet was suspended in a 500 μL PI-solution in PBS and 0.1 mg/mL RNase A, and 0.05% Triton X-100 was added. After incubation for 10 min at 37 °C, the cells were transferred to the flow cytometer and cell fluorescence was measured. The samples were measured by flow cytometry (LSR II, BD Biosciences, Franklin Lakes, NJ, USA) and analyzed using BD FACS DIVA software v. 6.1.3 (BD Biosciences).

[3] = tested on: MCF-10A; assay: ζ-potential measurement, MCF-10A; type: cell-based, human; conditions: PBS pH 7.4, 37 °C; more negative after treatment
Method: First, the ζ-potential of each cell line was measured, and all obtained values were negative (Figure 6A). The Student t-test statistical analysis which was applied distinguished the ζ-potentials of the three studied cell lines with p < 0.05, and the values followed the order of MCF-7 > MDA-MB-231 > MCF-10A. […] represents the relative percentage change of the ζ-potential induced by the studied compounds for the different cell lines. Compound 2 was able to decrease the ζ-potential of the cells with the following ranking: MCF-7 (42%) > MCF-10A (24%) > MDA-MB-231 (16%). For compound 4, the ranking was as follows: MCF-10A (50%) > MDA-MB-231 (46%) > MCF-7 (3%). For compound 5, this was MCF-10A (36%) > MCF-7 (22%) > […].
The zeta (ζ ξ) potential is the electrostatic potential at the shear plane of a cell, and is related to both its surface charge and the local environment. The ζ-potential of the intact cells and the treated ones was recorded in a cell suspension (0.5 × 10^6 cells/mL) in PBS, using the electrophoretic light-scattering technique on a Zetasizer Nano ZS analyzer (Malvern Instruments, Great Britain). Laser Doppler electrophoresis and velocimetry of cells were used to determine the ζ-potential by measuring the speeds of the cells in PBS upon the application of an electric field. The ζ-potential was calculated based on the Helmholtz–Smoluchowski equation. The measurements were performed in a U-shaped cell with gold-plated electrodes at 37 °C.
Figure 6 ζ-potential of the investigated cell lines, MCF-10A, MCF-7, and MDA-MB-231 (A). Alterations in the ζ-potential after treatment with compounds 2 (pink), 4 (blue), and 5 (green) (B). All zeta potential values were measured in PBS buffer (137 mM NaCl, 2.7 mM KCl, 8 mM Na2HPO4, and 2 mM KH2PO4; pH 7.4) at 37 °C. Two independent experiments were carried out for each cell line, and each sample was measured 6 times. (*; ***) denote p < 0.05 and p < 0.001 as follows. […]

[4] = BALB 3T3, 24 h, NRU, no irradiation (CC50), read-out: IC50 of Mean ± SD, Cytotoxicity
[5] = BALB 3T3, value in brackets, read-out: IC50, Cytotoxicity (converted)

melting point: 173 to 175 °C
SMILES: CCOC(=O)c1sc2nc(CC)nc(N)c2c1C [Compound 4, Ethyl 4-Amino-2-Ethyl-5-Methylthieno[2,3-d]Pyrimidine-6-Carboxylate]
IC50 at 24 h [1, 4]: 2630 µg/mL
IC50 at 24 h [1, 5]: 9.37 mM
cell cycle arrest phase, MDA-MB-231 [2]: cell cycle arrest in the G2 stage
change of %G1 vs control, MDA-MB-231 [2]: −29.46%
change of %G2 vs control, MDA-MB-231 [2]: +44.9%
change of %S vs control, MDA-MB-231 [2]: +14.4%
%G1, MDA-MB-231 [2]: 29.2%
%G2, MDA-MB-231 [2]: 6.35%
%S, MDA-MB-231 [2]: 53.3%
Δζ/ζ relative change of ζ-potential, MCF-10A [3]: 50.48% and 50%

melting point: 206 to 207 °C
SMILES: CCOC(=O)Cc1nc(N)c2c(C)c(C(=O)OCC)sc2n1 [Compound 2, Ethyl 4-Amino-2-(2-Ethoxy-2-Oxoethyl)-5-Methylthieno[2,3-d]Pyrimidine-6-Carboxylate]
IC50 at 24 h [1, 4]: 1740 ± 75.5 µg/mL
IC50 at 24 h [1, 5]: 5.37 mM
cell cycle arrest phase, MDA-MB-231 [2]: cell cycle arrest in the G2 stage
change of %G1 vs control, MDA-MB-231 [2]: −17.63%
change of %G2 vs control, MDA-MB-231 [2]: +53.65%
change of %S vs control, MDA-MB-231 [2]: +15%
%G1, MDA-MB-231 [2]: 34.1%
%G2, MDA-MB-231 [2]: 6.73%
%S, MDA-MB-231 [2]: 53.6%
Δζ/ζ relative change of ζ-potential, MCF-10A [3]: 24.27% and 24%

melting point: 203 to 204 °C
SMILES: CCOC(=O)c1sc2nc(C)nc(N)c2c1C [Compound 5, Ethyl 4-Amino-2,5-Dimethyl-Thieno[2,3-d]Pyrimidine-6-Carboxylate]
IC50 at 24 h [1, 4]: 1540 ± 61.5 µg/mL
IC50 at 24 h [1, 5]: 5.4 mM
cell cycle arrest phase, MDA-MB-231 [2]: cell cycle arrest in the G2 stage
change of %G1 vs control, MDA-MB-231 [2]: −20%
change of %G2 vs control, MDA-MB-231 [2]: +45.9%
change of %S vs control, MDA-MB-231 [2]: +15.45%
%G1, MDA-MB-231 [2]: 33.1%
%G2, MDA-MB-231 [2]: 6.439%
%S, MDA-MB-231 [2]: 53.8%
Δζ/ζ relative change of ζ-potential, MCF-10A [3]: 35.94% and 36%
